Measured values published in US20200308141A1, “SOLID STATE FORMS OF NERATINIB AND SALTS THEREOF” (PLIVA HRVATSKA D.O.O., priority 2016, published 2020).

Key:
[1] = Solubility test according to European Pharmacopoeia 7.0, 5.11; type: physicochemical; settings: for Solubility: Ph. Eur. descriptive term
Procedure: Solubility test was performed according to European Pharmacopoeia 7.0, page 637, 5.11.

[2] = Texture analysis (low-pressure compression, TA-XTplus Texture analyser); type: physicochemical; settings: for Compressed density index, CDI: 200 mg sample, cyclic compression up to 20 steps, CDI below 15 is considered good flowability
Procedure: A simple and low sample consuming method for evaluation of the packing density of powders were obtained as compression profiles under low pressures using a die and a flat-faced punch fitted on a TA-XTplus Texture analyser (Stable Micro Systems Ltd., Godalming, UK). The small amount of 200 mg of sample was compressed in a steel mould (with the rate of displacement 0.03 mm/s). Also, a cyclic procedure (similar to tapping) was performed at maximal compressive displacement 0.5 mm, then retracting, relaxation for 15 s and then repeated compressive steps (altogether up to 20 steps).
Density at 0.2 MPa and CDI data of Neratinib maleate Form monohydrate and Neratinib maleate Form B6 (prepared according to example 12) are presented in Table 2.

With `CCOc1cc2ncc(C#N)c(Nc3ccc(OCc4ccccn4)c(Cl)c3)c2cc1NC(=O)/C=C/CN(C)C` [Neratinib base B6, (E)-N-{4-[3-Chloro-4-(2-pyridinylmethoxy)anilino]-3-cyano-7-ethoxy-6-quinolinyl}-4-(dimethylamino) -2-butenamide] the “Solubility compared with Neratinib maleate monohydrate” value ([1]; all tested conditions (pH 1.1, 4.5, 6.8), listed as Neratinib base form B6) was “good correlation”, the Solubility ([1]; pH = 1.1) was “sparingly” and the Solubility ([1]; pH = 4.5) was “slightly”. For the same compound, the Solubility ([1]; pH = 6.8) was “very slightly”, the “Density at 0.2 MPa” value ([2]; 200 mg sample compressed in steel mould, 0.03 mm/s, listed as crystalline form B6 of Neratinib base) was “higher than that of the Neratinib maleate monohydrate” and the “Compressed density index, CDI” value ([2]; listed as Neratinib base Form B6) was 10.89. The “Compressed density index, CDI” value ([2]; listed as crystalline form B6 of Neratinib base) was “below 15”.
